Test results taken from patent US11666589B2, “Pivarubicin and benzarubicin compositions” (Paradox Pharmaceuticals, Inc., priority 2020, dated 2023).
Values joined by “and” are separate entries in the source; they are usually repeats but may differ in a detail not shown here. Identical values can stand only once. Like-named read-outs stand apart in the source and are kept apart here.

Tests used:
[1] = Cardiotoxicity assessment (Bertazzoli Test), non-tumor-bearing mice; assay type: in vivo, female NSG mice; settings: for hearts with Severity 0 / hearts with Severity 0.5 / hearts with Severity 1.0 / hearts with Total Score 0 / hearts with Total Score 0.5 / hearts with Total Score 1.0: Non-Tumor-Bearing; for hearts with Severity 0 / hearts with Severity 0.5 / hearts with Severity 1.0: 3 i.p. doses at 2-week intervals; for hearts with Total Score 0 / hearts with Total Score 0.5 / hearts with Total Score 1.0: severity×extension
Procedure: Drug-mediated cardiotoxicity was assessed in both non-tumor-bearing female NSG mice administered three doses (i.p. every two weeks) of the MTD of doxorubicin, pivarubicin or the equivalent volume of solvent only and in hearts excised from tumor-bearing mice treated as described in Results section. Body weights were monitored every three days. Two weeks after final dose, mice were sacrificed, and hearts were excised immediately. Intact ventricular myocardia were fixed for a minimum of 24 h in 10% formalin phosphate buffered to pH 7.0 and then carefully sectioned into 2 to 3-mm thick slices before being dehydrated in graded ethanol and cleared in xylene prior to embedding in paraffin at 58° C. Sections (4-μm thick) were mounted on glass slides, deparaffinized in xylene, and stained in the routine fashion with Mayer's hematoxylin and eosin. Slide labels were blinded to evaluator. Myocardial lesions were evaluated by routine light microscopy and scored with regard to the severity and extent of damage:
Degree of severity (S)—0, no evidence of histological changes; 1, sarcoplasmic microvacuolization and/or inclusions (interstitial or cellular edema); 2, as in 1 plus sarcoplasmic macrovacuolization or atrophia, necrosis, fibrosis, endocardial lesions, and thrombi.
Degree of extension (E)—0, no lesions; 0.5, less than 10 single altered myocytes on the whole-heart section; 1, scattered single altered myocytes; 2, scattered small groups of altered myocytes; 3, spread small groups of altered myocytes; 4, confluent groups of altered myocytes; 5, most of cells damaged.
Total cardiotoxicity score/animal=S×E and mean total score (MTS) for each treatment group was MTS=(S×E)/number of animals.
Given the limitation of doxorubicin in the treatment of tumors due to irreversible cardiotoxicity due to the total cumulative dose of drug, it was next determined whether pivarubicin produced evidence of cardiotoxic damage at the total dose of drug administered to NSG mice that produced tumor growth inhibition. Histological evidence of ventricular damage in hearts of drug- or vehicle-treated NSG mice were assessed using the Bertazzoli Test, originally designed to assess doxorubicin-induced cardiomyocyte damage. Analyses were performed on hearts from two independent experiments: 1) hearts that were excised at dosing endpoint from tumor-bearing NSG mice receiving 2 i.p. doses of pivarubicin at 16.5 mg/kg, doxorubicin at 1.4 mg/kg then 1.6 mg/kg and an equivalent volume of vehicle alone and 2) non-tumor-bearing female NSG mice receiving 3 i.p. doses of pivarubicin at 16.5 mg/kg, doxorubicin at 1.4 mg/kg then 1.6 mg/kg×2 and an equivalent volume of vehicle alone at 2-week intervals.
Non-tumor-bearing female NSG mice at 9 weeks old were treated with either 16.5 mg/kg pivarubicin (PIV), 1.4 mg/kg (1×) and 1.6 mg/kg (2×) doxorubicin and equivalent volumes of vehicle i.p. at 2-week intervals. Tumor-bearing female NSG mouse treatment was as described for the “Cardiotoxicity Assessment method” method. At endpoint, hearts were excised and prepared for histological analysis as described above. Severity and severity×extension (total score) are defined in Materials and Methods.

CEM/VLB-10 = test: Drug resistance of P-glycoprotein overexpressing CEM/VLB-10 cells; assay type: cell-based, human; settings: CEM/VLB-10 versus CCRF-CEM
Procedure: Pivarubicin used for TNBC studies was synthesized by Dr. John Rimoldi (Univ. of Mississippi) using the previously described protocol. Doxorubicin HCl, rottlerin and all antibodies were purchased from Sigma-Aldrich (St. Louis, Mo.). For in vitro experiments, doxorubicin and pivarubicin were dissolved in DMSO. The final maximum DMSO concentration used for in vitro drug treatments (1% for 72 hours) was not cytotoxic. IL-3-dependent 32D.3 murine myeloid cells, CCRF-CEM human lymphoblastic leukemia cells and multidrug-resistant variants (generous gift of Dr. William T. Beck, St. Jude Children's Research Hospital, Memphis, Tenn.), 293 embryonic human kidney cells and HL-60 human acute myeloid leukemia cells transfected with Bcr-Abl, Bcl-XL or empty expression vectors (generous gift of Dr. Kapil Bhalla, Univ. of Miami) were maintained as previously described. K562 human chronic myelogenous leukemia and LNCaP human prostate cancer cells were purchased from ATCC (Manassas, Va.) and maintained as described by the vendor. LNCaP/Bcl-2 cells were the generous gift of Dr. Ralph Buttyan (Columbia Univ.). Luminescent MDA-MB-231-LM2 (LM-2; metastatic lung subpopulation isolated from human TNBC MDA-MB-231 cells transduced with eIF1a-Luc2-puro lentivirus) were generously provided by Dr. Yibin Kang, Princeton Univ.) and maintained in culture as previously described. […]

MDA-MB-231 cells = test: MTT cytotoxicity, TNBC monolayer MDA-MB-231; assay type: cell-based, human; settings: MDA-MB-231, 48 h
Procedure: (§1) Rottlerin treatment of cells, cell viability analysis by MTT [28] and immunoblot identification of protein expression were performed and described previously.
Based upon the ability of pivarubicin to circumvent multiple mechanisms of resistance against doxorubicin, we then examined the efficacy of pivarubicin against TNBC in comparison to doxorubicin, using the following procedure, using two basal TNBC cell lines. MDA-MB-231 cells and SUM-159 cells were maintained under adherent monolayer growth conditions. Upon reaching 50% confluency, cells were treated for 48 h with the dose range of doxorubicin or pivarubicin as indicated in FIGS. 6A and 6B.
In the absence of specific receptor targets, the current treatment of metastatic TNBC relies on doxorubicin-based multidrug therapy, with only limited effectiveness. […] Once achieving a primary tumor volume of 150-190 mm^3, mice were randomized into three cohorts for treatment with the MTD of pivarubicin or doxorubicin, or the equivalent volume per body weight of vehicle.

32D.3 cells = test: Cell viability by trypan blue with or without rottlerin
Procedure: as §1
FIGS. 4A-4D are charts and images from studies of pivarubicin cytotoxicity mediated through PKC-delta (PKCd) activation. For FIG. 4A, 32D.3 cells, suspended in RPMI-1640 medium/10% FCS/IL-3 at a density of 5×10^5 cells/ml, were treated with either DMSO (C) or 5 μM pivarubicin (PIV) for 4 h prior to harvesting, cell fractionation, and immunoblot analysis of PKCd as described previously. For FIG. 4B, 32D.3 cells were pretreated with 10 μM rottlerin for 2 h prior to exposure to 5 μM drug for 1 h at 37° C. Cells were pelleted and washed twice in large volumes of warm PBS, then resuspended in fresh, drug-free medium containing 10 μM rottlerin at 5×10^5 cells/ml and incubated at 37° C. for up to 72 h. At indicated times, aliquots of cells were withdrawn and stained with trypan blue. Viable cells were scored based on the exclusion of stain and gross morphological appearance. For the results shown in FIGS. 4C and 4D, 32D.3 cells were transfected with PKCd siRNA or scrambled siRNA as described in the Materials and Methods section under “Chemicals and Biologicals”. The cells were then assessed for pivarubicin cytotoxicity as for FIG. 4A. Each datum point represents the mean and standard error of at least three independent determinations, each consisting of 300-500 cells per count, when possible.

[2] = without rottlerin, doxorubicin at IC50 concentration

SMILES | hearts with Severity 0 [1] | hearts with Severity 0.5 [1] | hearts with Severity 1.0 [1] | hearts with Total Score 0 [1] | hearts with Total Score 0.5 [1] | hearts with Total Score 1.0 [1] | resistance (CEM/VLB-10) | IC90 (MDA-MB-231 cells; Homo sapiens) [µM] | IC90 (MDA-MB-231 cells) [µM] | effect of rottlerin co-treatment on cytotoxicity (32D.3 cells; 10 μM rottlerin) | time to 50% cell kill (32D.3 cells; [2]) [h] | histologic damage to ventricular cardiomyocytes ([1]; non-tumor-bearing mice (n=9), cumulative tumor growth inhibitory dose) | IC50 (MDA-MB-231 cells) [µM] | IC90 (MDA-MB-231 cells; read-out: IC90) | time to 50% cell kill (32D.3 cells; co-treatment with 10 μM rottlerin) [h]
COc1cccc2c1C(=O)c1c(O)c3c(c(O)c1C2=O)C[C@@](O)(C(=O)CO)C[C@@H]3O[C@H]1C[C@H](N)[C@H](O)[C@H](C)O1 [Doxorubicin, reference compound] | 5/9 | 0/9 | 4/9 | 7/9 | 2/9 | 0/9 | 12 fold | > 20 | 20 | does not alter | 24 |  |  |  | 
COc1cccc2c1C(=O)c1c(O)c3c(c(O)c1C2=O)C[C@@](O)(C(=O)COC(=O)C(C)(C)C)C[C@@H]3O[C@H]1C[C@H](NCc2ccccc2)[C@H](O)[C@H](C)O1 [Pivarubicin, N-Benzyladriamycin-14-pivalate] | 9/9 | 0/9 | 0/9 | 9/9 | 0/9 | 0/9 | no resistance |  |  |  | ≤ 6 | no evidence of histologic damage | 2.5 | 4.5 µM and 5.1 µM | 24
